Measurements reported in the supplement of paper PMC11208160.

Assay: recombinant barcode read abundance after kanamycin selection (control-corrected) (log10(CPM+1)); higher = more efficient recombination; sequences stand for … in AGTGCAGAGAAAATCGGCCAGTTTTCTCTGCCTGCAGTCCGCATGCCGT…AGATTTATGCAGCGGACTGCCTTTCTCCCAAAGTGATAAACCGGACAGTATCATGGACCGGTTTTCCCGGTAATCCGTATTTGCAAGGTTGGTTTCACT; site = the 11-nt target
Procedure: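 Pooled E. coli target-specificity screen for the IS621 bridge recombinase. Each library plasmid pairs an 11-nt target (CT core) with a bridge RNA whose target-binding loop (9-nt LTG + 4-nt RTG) is reprogrammed; the rest of the 177-nt WT IS621 bridge RNA scaffold is fixed. The plasmid is co-electroporated with a WT donor plasmid; recombinase is induced with 0.1 mM IPTG and recombinants are selected on kanamycin. Recombinant barcodes are sequenced, converted to CPM, averaged over two biological replicates and corrected by the unselected control CPM. Molecule = full bridge RNA written as DNA: LTG = specificity nt 1-9, RTG = reverse complement of specificity nt 8-11, in the WT scaffold.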
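Note: IS621 recombinase and bridge RNA in Escherichia coli cells.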

| Sequence | recombinant barcode read abundance (log10) |
| --- | --- |
| AGCACAACTTGGGTTCTAACCTGTTGCCT (site AGTACAACTAG) | 0.498 |
| AGCAGAGCTTGGGTTCTAACCTGTTGCAG (site AGCAGAGCTCA) | 0.631 |
| AGCAGAGCTTGGGTTCTAACCTGTTGCAG (site AGCAGAGCTCC) | 0.224 |
| AGCAGAGCTTGGGTTCTAACCTGTTGCAG (site AGCAGAGCTCG) | 0.505 |
| AGCAGAGCTTGGGTTCTAACCTGTTGCAG (site AGCAGAGCTCT) | 2.24 |
| AGCAGAGCTTGGGTTCTAACCTGTTGCCG (site AGCAGAGCTCA) | 0.0348 |
| AGCAGAGCTTGGGTTCTAACCTGTTGCCG (site AGCAGAGCTCC) | 0.058 |
| AGCAGAGCTTGGGTTCTAACCTGTTGCCG (site AGCAGAGCTCG) | 1.15 |
| AGCAGAGCTTGGGTTCTAACCTGTTGCCG (site AGCAGAGCTCT) | 0.465 |
| AGCAGTGCTTGGGTTCTAACCTGTTGCCT (site AGCAGTGCTAG) | 0.686 |
| AGCAGTGCTTGGGTTCTAACCTGTTGCCT (site AGCATTCCTAG) | 0.0332 |
| AGCATCCCTTGGGTTCTAACCTGTTGCTG (site AGCATCCCTCA) | 1.47 |
| AGCATCCCTTGGGTTCTAACCTGTTGCTG (site CATGCGACTAC) | 0.342 |
| AGCCACTCTTGGGTTCTAACCTGTTGCCT (site AGCCACACTAG) | 0.0426 |
| AGCCACTCTTGGGTTCTAACCTGTTGCCT (site AGCCACCCTAG) | 0.149 |
| AGCCACTCTTGGGTTCTAACCTGTTGCCT (site AGCCACGCTAG) | 0.153 |
| AGCCACTCTTGGGTTCTAACCTGTTGCCT (site AGCCACTCTAG) | 1.49 |
| AGCCAGGCTTGGGTTCTAACCTGTTGCGG (site AGCCAGGCTCC) | 1.76 |
| AGCCAGGCTTGGGTTCTAACCTGTTGCGG (site TCGTTTCCTAT) | 0.0575 |
| AGCCCTCCTTGGGTTCTAACCTGTTGCAG (site AGCCCTCCTCT) | 1.86 |
| AGCCCTCCTTGGGTTCTAACCTGTTGCAG (site GAAATAACTAC) | 0.114 |

| Sequence | recombinant barcode read abundance (log10) |
| --- | --- |
| AGCCCTCCTTGGGTTCTAACCTGTTGCAT (site AGCCCTCCTAT) | 1.41 |
| AGCCCTCCTTGGGTTCTAACCTGTTGCAT (site AGCGCTCCTAC) | 0.0462 |
| AGCCCTCCTTGGGTTCTAACCTGTTGCTA (site AGCCCTCCTAA) | 0.0446 |
| AGCCCTCCTTGGGTTCTAACCTGTTGCTA (site AGCCCTCCTCA) | 0.449 |
| AGCCCTCCTTGGGTTCTAACCTGTTGCTA (site AGCCCTCCTGA) | 0.222 |
| AGCCCTCCTTGGGTTCTAACCTGTTGCTA (site AGCCCTCCTTA) | 1.37 |
| AGCCCTCCTTGGGTTCTAACCTGTTGCTG (site AGCCCTCCTAA) | 0.0691 |
| AGCCCTCCTTGGGTTCTAACCTGTTGCTG (site AGCCCTCCTCA) | 1.49 |
| AGCCCTCCTTGGGTTCTAACCTGTTGCTG (site AGCCCTCCTGA) | 0.109 |
| AGCCCTCCTTGGGTTCTAACCTGTTGCTG (site AGCCCTCCTTA) | 0.0866 |
| AGCCGAACTTGGGTTCTAACCTGTTGCCT (site AGCCGAACTAG) | 0.832 |
| AGCCGAACTTGGGTTCTAACCTGTTGCCT (site CGCCGAACTAG) | 0.11 |
| AGCCGAACTTGGGTTCTAACCTGTTGCCT (site GGCCGAACTAG) | 0.478 |
| AGCCGAACTTGGGTTCTAACCTGTTGCCT (site TGCCGAACTAG) | 0.0692 |
| AGCCTATCTTGGGTTCTAACCTGTTGCCA (site AGCCTATCTTG) | 0.101 |
| AGCCTATCTTGGGTTCTAACCTGTTGCCA (site CTAGCCGCTAA) | 0.109 |
| AGCCTTACTTGGGTTCTAACCTGTTGCCT (site AACCTTACTAG) | 0.106 |
| AGCCTTACTTGGGTTCTAACCTGTTGCCT (site ACCCTTACTAG) | 0.275 |
| AGCCTTACTTGGGTTCTAACCTGTTGCCT (site AGCCTTACTAG) | 0.171 |
| AGCCTTACTTGGGTTCTAACCTGTTGCCT (site ATCCTTACTAG) | 0.122 |
| AGCCTTGCTTGGGTTCTAACCTGTTGCCT (site AGCATTGCTAG) | 0.0195 |

| Sequence | recombinant barcode read abundance (log10) |
| --- | --- |
| AGCCTTGCTTGGGTTCTAACCTGTTGCCT (site AGCCTTGCTAG) | 0.7 |
| AGCCTTGCTTGGGTTCTAACCTGTTGCCT (site AGCGTTGCTAG) | 0.566 |
| AGCCTTGCTTGGGTTCTAACCTGTTGCCT (site AGCTTTGCTAG) | 0.167 |
| AGCGAAGCTTGGGTTCTAACCTGTTGCCT (site AGCGAAGCTAG) | 0.382 |
| AGCGAAGCTTGGGTTCTAACCTGTTGCCT (site AGCGAGGCTAG) | 0.3 |
| AGCGAATCTTGGGTTCTAACCTGTTGCCT (site AGAGAATCTAG) | 0.0521 |
| AGCGAATCTTGGGTTCTAACCTGTTGCCT (site AGCGAATCTAG) | 0.719 |
| AGCGAATCTTGGGTTCTAACCTGTTGCCT (site AGGGAATCTAG) | 0.323 |
| AGCGAATCTTGGGTTCTAACCTGTTGCCT (site AGTGAATCTAG) | 0.158 |
| AGCGACCCTTGGGTTCTAACCTGTTGCGT (site AGCGACCCTAC) | 3.18 |
| AGCGACCCTTGGGTTCTAACCTGTTGCGT (site CGCGATCCTAC) | 0.16 |
| AGCGAGTCTTGGGTTCTAACCTGTTGCCT (site AACGAGTCTAG) | 0.951 |
| AGCGAGTCTTGGGTTCTAACCTGTTGCCT (site ACCGAGTCTAG) | 0.817 |
| AGCGAGTCTTGGGTTCTAACCTGTTGCCT (site AGCGAGTCTAG) | 2.08 |
| AGCGAGTCTTGGGTTCTAACCTGTTGCCT (site ATCGAGTCTAG) | 0.465 |
| AGCGCTACTTGGGTTCTAACCTGTTGCCT (site ACCGCTACTAG) | 0.121 |
| AGCGCTACTTGGGTTCTAACCTGTTGCCT (site AGCGCTACTAG) | 0.145 |
| AGCTAACCTTGGGTTCTAACCTGTTGCCT (site AGCTAACCTAG) | 0.407 |
| AGCTAACCTTGGGTTCTAACCTGTTGCCT (site AGTGAACCTAG) | 0.127 |
| AGCTACCCTTGGGTTCTAACCTGTTGCTT (site ACCTACTCTAA) | 0.0582 |
| AGCTACCCTTGGGTTCTAACCTGTTGCTT (site AGCTACCCTAA) | 0.62 |

| Sequence | recombinant barcode read abundance (log10) |
| --- | --- |
| AGCTCCTCTTGGGTTCTAACCTGTTGCCT (site AGCTCCTCTAG) | 0.0883 |
| AGCTCCTCTTGGGTTCTAACCTGTTGCCT (site CGCTCCTCTAG) | 0.144 |
| AGCTCCTCTTGGGTTCTAACCTGTTGCCT (site GGCTCCTCTAG) | 0.0482 |
| AGCTCCTCTTGGGTTCTAACCTGTTGCCT (site TGCTCCTCTAG) | 0.0453 |
| AGCTCGTCTTGGGTTCTAACCTGTTGCGG (site AGCTCGTCTCC) | 0.448 |
| AGCTCGTCTTGGGTTCTAACCTGTTGCGG (site AGTTCGTCTCG) | 0.191 |
| AGCTGGGCTTGGGTTCTAACCTGTTGCCT (site AACTGGGCTAG) | 0.0885 |
| AGCTGGGCTTGGGTTCTAACCTGTTGCCT (site ACCTGGGCTAG) | 0.101 |
| AGCTGGGCTTGGGTTCTAACCTGTTGCCT (site AGCTGGGCTAG) | 0.235 |
| AGCTGGGCTTGGGTTCTAACCTGTTGCCT (site ATCTGGGCTAG) | 0.11 |
| AGCTTATCTTGGGTTCTAACCTGTTGCCT (site AGCTAAACTAG) | 0.131 |
| AGCTTATCTTGGGTTCTAACCTGTTGCCT (site AGCTTATCTAG) | 0.179 |
| AGGAACACTTGGGTTCTAACCTGTTGCTT (site AGGAACACTAA) | 1.56 |
| AGGAACACTTGGGTTCTAACCTGTTGCTT (site AGGAACACTCA) | 0.279 |
| AGGAACCCTTGGGTTCTAACCTGTTGCTT (site AGGAACCCTAA) | 0.911 |
| AGGAACCCTTGGGTTCTAACCTGTTGCTT (site AGGAACCCTCA) | 0.328 |
| AGGAACCCTTGGGTTCTAACCTGTTGCTT (site AGGAACCCTGA) | 0.127 |
| AGGAACCCTTGGGTTCTAACCTGTTGCTT (site AGGAACCCTTA) | 0.256 |
| AGGAAGACTTGGGTTCTAACCTGTTGCGG (site AGGAAGACTCC) | 3.01 |
